Laboratory results: ChEMBL document CHEMBL4118071, “Discovery of unsymmetrical aromatic disulfides as novel inhibitors of SARS-CoV main protease: Chemical synthesis, biological evaluation, molecular docking and 3D-QSAR study” (Eur J Med Chem, 2017)
Activity calls are given as the source filed them. The rule behind the calls is not given here.

Assays:
[1] = Inhibition of SARS coronavirus Mpro using MCA-AVLQSGFR-Lys(Dnp)-Lys-NH as substrate by fluorescence assay; set-up: species or system Severe acute respiratory syndrome-related coronavirus
[2] = test system: Severe acute respiratory syndrome-related coronavirus
[3] = test system: Severe acute respiratory syndrome-related coronavirus; settings: 2 to 4 uM

CCOC(=O)/C=C/[C@H](C[C@@H]1CCNC1=O)NC(=O)[C@H](CCC(C)C)NC(=O)[C@@H](NC(=O)[C@@H](NC(=O)c1ccco1)C(C)C)C(C)C
Ki [1]: 6.7 µM

Clc1ccc(SSc2nnco2)cc1
alphaKi [2]: 0.2 µM

Brc1ccc(SSc2ncccn2)cc1
inhibition [3]: Active
